The numbers were not newly measured in patent US7718642B2, “AIDS prophylactic lubricating composition” (priority 1993, dated 2010), which cites them from elsewhere.

Series [1] concerns HIV.
For series [2] the following is noted: previous studies (Int J STD & AIDS); read-out: CC50 value (50% toxic dose).
For series [3], the system named is sperm cells. The conditions noted are these: diffusion into cervical mucous.
The test system of series [4] is viruses.
For series [5] the following is noted: in vivo.
Series [6] relates to HIV. As to conditions: used as contraceptive during sexual relations; J. Kreiss et al, JAMA 1992.

For `[H]/N=C(\N/C(=N/[H])NCCCCCCNC(=N)NC(=N)Nc1ccc(Cl)cc1)Nc1ccc(Cl)cc1` [chlorhexidine], the selectivity value in series [1] (CC50/IC50, previous studies (Int J STD & AIDS)) is 5.2. In addition, the IC50 in series [1] (previous studies (Int J STD & AIDS), read-out: IC50 value (50% inhibitory dose)) was 0.25 µM. Besides, in series [2], the 50% cytotoxic concentration (CC50) is 1.3 µM. In addition, in series [3], the “Concentration that restricts penetration of sperm cells and causes loss of mobility” value is listed as “above 0.1%”. For the same compound, the “Concentration that effectively destroys the envelope of viruses” value in series [4] is “above 0.1%”. The Undesirable side effects result in series [5] was “does not produce any undesirable side effects”.

For the compound nonoxynol-9, the “Prevention of HIV transmission” value in series [6] is listed as “did not prevent HIV transmission”.

By IC50 is commonly meant the point on the concentration scale where inhibition reaches its midpoint. Broadly, the CC50 is the concentration giving 50% cytotoxicity.
